We go through six molecules from PubChem BioAssay (NCI).

Among the test systems are HOP-18 NSCLC; KM20L2 colon; LXFL 529 NSCLC; RXF-631 renal; BT-549 breast; MDA-N.
What all share (assay): inhibition of tumour cell growth, NCI panel, 48 h

Structures are written as SMILES.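 Interpolation was linear, between the two tested concentrations surrounding the appropriate level; five concentrations were tested over 48 hours in 96-well plates. TGI: concentration producing complete growth inhibition.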

Take `O=C1NN=C(c2ccc([N+](=O)[O-])cc2)C1n1nc(-c2ccccc2)c2ccccc2c1=O` (stereo not drawn): the TGI in the experiment with HOP-18 NSCLC, with KM20L2 colon, with LXFL 529 NSCLC and in the experiment with RXF-631 renal was over 100 µM in each case.
For the molecule `c1ccc2c(CN3CCC(C4CCN(Cc5cccc6ccccc56)CC4)CC3)cccc2c1`, the TGI in the experiment on BT-549 breast was over 100 µM; in the experiment on HOP-18 NSCLC, over 100 µM; with KM20L2 colon, 10.3 µM; in the experiment with LXFL 529 NSCLC, 21.8 µM; with MDA-N, 25.2 µM; in the experiment on RXF-631 renal it was 35.5 µM.
For `COc1cc2nncc(SCc3ccc(Cl)c(Cl)c3)c2cc1OC`, the TGI with BT-549 breast, in the experiment on HOP-18 NSCLC, in the experiment with KM20L2 colon, with LXFL 529 NSCLC, in the experiment with MDA-N and in the experiment on RXF-631 renal was over 100 µM throughout.
Take `NC(=O)N/N=C(\CCC(=O)N(Cc1ccccc1)Cc1ccccc1)CC(=O)c1ccc(F)cc1`: the TGI in the experiment on HOP-18 NSCLC, in the experiment with KM20L2 colon, in the experiment with LXFL 529 NSCLC and with RXF-631 renal was over 100 µM in each case.
For the molecule `N#CC(C(=O)CCC(=O)Nc1ccc(Cl)c(Cl)c1)c1ccc(Cl)cc1` (stereo not drawn), the TGI with HOP-18 NSCLC, in the experiment on KM20L2 colon, with LXFL 529 NSCLC and in the experiment on RXF-631 renal was over 100 µM throughout.
As to `CCOC(=O)c1cn(CC)c2cc3c(cc2c1=O)SCS3`, the TGI with HOP-18 NSCLC, in the experiment on KM20L2 colon, with LXFL 529 NSCLC and with RXF-631 renal was over 100 µM throughout.
